Experimental data as given in publication PMC5563081, “Modulating Protein-Protein Interactions of the Mitotic Polo-like Kinases to Target Mutant KRAS” (Cell Chemical Biology, 2017).

Tests used:
Test in all cases: DiscoverX KINOMEscan
Format in all cases: binding
Conditions in all cases: read-out: % Control
AAK1 = target: T1, AAK1 (Homo sapiens, UniProt Q2M2I8)
T1 construct: purchased DiscoverX KINOMEscan
Description: (§1) A panel of 55 proteins (comprising 51 human kinases structurally or functionally related to the PLKs, plus the kinase catalytic domains of PLK1, PLK2, PLK3 and PLK4) were selected for testing by DiscoverX using the KINOMEscan assay platform. Compounds were supplied as 40x DMSO stocks and were tested at a final concentration of 50μM for Poloppin and 5μM for Poloppin-II. Binding interactions were reported as percentage of control where lower numbers indicate stronger binding. A cut-off of <35% was applied to report significant binding.

AURKA = target: T2, AURKA (Homo sapiens, UniProt O14965)
T2 construct: purchased DiscoverX KINOMEscan
Description: as §1

AURKC = target: T3, AURKC (Homo sapiens, UniProt Q9UQB9)
T3 construct: purchased DiscoverX KINOMEscan
Description: as §1

BMP2K = target: T4, BMP2K (Homo sapiens, UniProt Q9NSY1)
T4 construct: purchased DiscoverX KINOMEscan
T4 sequence (Q9NSY1 whole entry): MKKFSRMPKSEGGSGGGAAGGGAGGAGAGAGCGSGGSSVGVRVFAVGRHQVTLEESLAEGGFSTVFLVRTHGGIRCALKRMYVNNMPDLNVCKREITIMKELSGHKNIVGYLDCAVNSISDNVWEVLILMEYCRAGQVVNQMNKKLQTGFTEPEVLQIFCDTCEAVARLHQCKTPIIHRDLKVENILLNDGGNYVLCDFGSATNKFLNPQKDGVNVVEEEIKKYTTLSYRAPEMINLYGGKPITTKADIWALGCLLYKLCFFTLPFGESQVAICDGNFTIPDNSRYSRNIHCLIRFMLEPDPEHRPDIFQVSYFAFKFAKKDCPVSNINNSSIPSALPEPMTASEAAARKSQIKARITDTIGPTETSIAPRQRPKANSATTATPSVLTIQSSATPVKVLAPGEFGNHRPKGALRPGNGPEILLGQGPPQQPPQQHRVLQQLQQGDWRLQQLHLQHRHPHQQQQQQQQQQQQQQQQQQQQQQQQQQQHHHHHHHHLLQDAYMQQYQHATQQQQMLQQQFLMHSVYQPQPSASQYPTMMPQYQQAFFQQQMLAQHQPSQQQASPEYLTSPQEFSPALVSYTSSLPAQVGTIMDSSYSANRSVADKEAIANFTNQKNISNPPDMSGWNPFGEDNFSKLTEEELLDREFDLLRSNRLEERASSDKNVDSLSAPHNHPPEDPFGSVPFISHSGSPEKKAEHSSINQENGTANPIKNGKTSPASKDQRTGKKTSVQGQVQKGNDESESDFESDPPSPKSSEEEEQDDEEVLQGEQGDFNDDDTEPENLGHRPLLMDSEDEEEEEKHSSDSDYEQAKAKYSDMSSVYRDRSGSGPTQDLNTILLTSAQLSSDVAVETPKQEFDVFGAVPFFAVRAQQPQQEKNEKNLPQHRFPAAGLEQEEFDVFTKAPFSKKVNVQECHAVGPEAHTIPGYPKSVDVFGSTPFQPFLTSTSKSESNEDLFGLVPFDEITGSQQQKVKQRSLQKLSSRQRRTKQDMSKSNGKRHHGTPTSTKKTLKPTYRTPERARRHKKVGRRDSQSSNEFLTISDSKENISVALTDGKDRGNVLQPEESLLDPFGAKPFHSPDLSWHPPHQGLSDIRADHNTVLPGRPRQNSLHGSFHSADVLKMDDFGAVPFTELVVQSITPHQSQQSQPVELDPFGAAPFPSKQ
Description: as §1

CSNK2A1 = target: T5, CSNK2A1 (Homo sapiens, UniProt P68400)
T5 construct: purchased DiscoverX KINOMEscan
Description: as §1

CSNK2A2 = target: T6, CSNK2A2 (Homo sapiens, UniProt P19784)
T6 construct: purchased DiscoverX KINOMEscan
T6 sequence (P19784 whole entry): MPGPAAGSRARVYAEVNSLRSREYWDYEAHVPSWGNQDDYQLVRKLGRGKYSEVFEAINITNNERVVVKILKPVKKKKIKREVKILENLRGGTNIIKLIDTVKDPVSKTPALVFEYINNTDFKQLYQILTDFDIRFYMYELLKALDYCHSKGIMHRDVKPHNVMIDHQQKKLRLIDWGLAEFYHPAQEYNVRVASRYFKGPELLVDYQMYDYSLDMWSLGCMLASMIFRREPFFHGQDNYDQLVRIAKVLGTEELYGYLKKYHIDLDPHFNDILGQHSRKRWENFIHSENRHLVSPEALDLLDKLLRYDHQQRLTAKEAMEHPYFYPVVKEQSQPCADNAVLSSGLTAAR
Description: as §1

EIF2AK1 = target: T7, EIF2AK1 (Homo sapiens, UniProt Q9BQI3)
T7 construct: purchased DiscoverX KINOMEscan
Description: as §1

EIF2AK4 = target: T8, EIF2AK4 (Homo sapiens, UniProt Q9P2K8, S808G)
T8 construct: purchased DiscoverX KINOMEscan
Description: as §1

ERN1 = target: T9, ERN1 (Homo sapiens, UniProt O75460)
T9 construct: purchased DiscoverX KINOMEscan
Description: as §1

GAK = target: T10, GAK (Homo sapiens, UniProt O14976)
T10 construct: purchased DiscoverX KINOMEscan
Description: as §1

GSG2 = target: T11, GSG2 (Homo sapiens, UniProt Q8TF76)
T11 construct: purchased DiscoverX KINOMEscan
Description: as §1

IKBKB = target: T12, IKBKB (Homo sapiens, UniProt O14920)
T12 construct: purchased DiscoverX KINOMEscan
Description: as §1

IKBKE = target: T13, IKBKE (Homo sapiens, UniProt Q14164)
T13 construct: purchased DiscoverX KINOMEscan
T13 sequence (Q14164 whole entry): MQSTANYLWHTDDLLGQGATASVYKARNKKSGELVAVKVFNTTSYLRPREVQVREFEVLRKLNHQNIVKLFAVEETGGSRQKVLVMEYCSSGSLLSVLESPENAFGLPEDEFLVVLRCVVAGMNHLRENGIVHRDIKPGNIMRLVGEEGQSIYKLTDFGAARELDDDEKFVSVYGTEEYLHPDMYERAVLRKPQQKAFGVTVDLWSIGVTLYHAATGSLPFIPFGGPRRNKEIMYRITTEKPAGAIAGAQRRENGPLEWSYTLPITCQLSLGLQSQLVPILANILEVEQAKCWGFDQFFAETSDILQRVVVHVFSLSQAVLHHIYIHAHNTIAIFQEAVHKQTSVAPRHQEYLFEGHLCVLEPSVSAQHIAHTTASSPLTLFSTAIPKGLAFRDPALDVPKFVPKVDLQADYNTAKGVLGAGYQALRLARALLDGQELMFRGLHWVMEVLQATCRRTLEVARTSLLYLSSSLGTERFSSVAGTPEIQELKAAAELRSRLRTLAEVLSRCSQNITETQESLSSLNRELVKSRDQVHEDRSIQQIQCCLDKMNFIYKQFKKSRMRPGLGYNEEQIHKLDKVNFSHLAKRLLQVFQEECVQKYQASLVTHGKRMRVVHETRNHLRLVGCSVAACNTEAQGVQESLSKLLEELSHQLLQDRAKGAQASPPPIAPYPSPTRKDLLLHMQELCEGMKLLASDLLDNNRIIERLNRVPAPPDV
Description: as §1

NEK2 = target: T14, NEK2 (Homo sapiens, UniProt P51955)
T14 construct: purchased DiscoverX KINOMEscan
Description: as §1

NEK3 = target: T15, NEK3 (Homo sapiens, UniProt P51956)
T15 construct: purchased DiscoverX KINOMEscan
Description: as §1

NEK4 = target: T16, NEK4 (Homo sapiens, UniProt P51957)
T16 construct: purchased DiscoverX KINOMEscan
Description: as §1

NEK5 = target: T17, NEK5 (Homo sapiens, UniProt Q6P3R8)
T17 construct: purchased DiscoverX KINOMEscan
Description: as §1

NEK7 = target: T18, NEK7 (Homo sapiens, UniProt Q8TDX7)
T18 construct: purchased DiscoverX KINOMEscan
Description: as §1

NEK9 = target: T19, NEK9 (Homo sapiens, UniProt Q8TD19)
T19 construct: purchased DiscoverX KINOMEscan
Description: as §1

STK35 = target: T20, STK35 (Homo sapiens, UniProt Q8TDR2)
T20 construct: purchased DiscoverX KINOMEscan
Description: as §1

STK36 = target: T21, STK36 (Homo sapiens, UniProt Q9NRP7)
T21 construct: purchased DiscoverX KINOMEscan
Description: as §1

SgK110 = target: T22, SgK110 (Homo sapiens, UniProt P0C264)
T22 construct: purchased DiscoverX KINOMEscan
Description: as §1

TBK1 = target: T23, TBK1 (Homo sapiens, UniProt Q9UHD2)
T23 construct: purchased DiscoverX KINOMEscan
Description: as §1

TLK1 = target: T24, TLK1 (Homo sapiens, UniProt Q9UKI8)
T24 construct: purchased DiscoverX KINOMEscan
T24 sequence (Q9UKI8 whole entry): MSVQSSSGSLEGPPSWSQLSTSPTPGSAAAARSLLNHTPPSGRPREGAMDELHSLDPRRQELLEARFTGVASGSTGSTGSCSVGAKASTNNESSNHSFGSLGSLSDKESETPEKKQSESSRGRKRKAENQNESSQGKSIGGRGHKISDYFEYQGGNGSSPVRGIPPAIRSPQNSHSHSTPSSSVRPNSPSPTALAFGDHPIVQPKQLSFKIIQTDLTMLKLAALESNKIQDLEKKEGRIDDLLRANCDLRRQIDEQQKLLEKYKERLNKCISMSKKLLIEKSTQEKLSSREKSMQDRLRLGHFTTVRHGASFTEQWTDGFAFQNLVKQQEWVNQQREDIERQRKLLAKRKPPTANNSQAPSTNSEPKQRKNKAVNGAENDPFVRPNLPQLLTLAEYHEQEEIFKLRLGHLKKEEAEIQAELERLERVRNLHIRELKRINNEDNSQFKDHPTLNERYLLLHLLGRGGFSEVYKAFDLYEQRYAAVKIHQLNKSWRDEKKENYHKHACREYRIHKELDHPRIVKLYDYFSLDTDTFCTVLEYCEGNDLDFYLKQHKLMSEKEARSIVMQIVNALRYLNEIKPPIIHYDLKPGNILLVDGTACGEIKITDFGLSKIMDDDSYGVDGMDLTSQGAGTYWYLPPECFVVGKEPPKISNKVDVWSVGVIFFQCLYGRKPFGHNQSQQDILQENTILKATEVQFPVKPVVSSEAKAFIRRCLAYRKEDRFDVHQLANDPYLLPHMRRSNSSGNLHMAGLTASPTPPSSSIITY
Description: as §1

TLK2 = target: T25, TLK2 (Homo sapiens, UniProt Q86UE8)
T25 construct: purchased DiscoverX KINOMEscan
Description: as §1

TTK = target: T26, TTK (Homo sapiens, UniProt P33981)
T26 construct: purchased DiscoverX KINOMEscan
T26 sequence (P33981 whole entry): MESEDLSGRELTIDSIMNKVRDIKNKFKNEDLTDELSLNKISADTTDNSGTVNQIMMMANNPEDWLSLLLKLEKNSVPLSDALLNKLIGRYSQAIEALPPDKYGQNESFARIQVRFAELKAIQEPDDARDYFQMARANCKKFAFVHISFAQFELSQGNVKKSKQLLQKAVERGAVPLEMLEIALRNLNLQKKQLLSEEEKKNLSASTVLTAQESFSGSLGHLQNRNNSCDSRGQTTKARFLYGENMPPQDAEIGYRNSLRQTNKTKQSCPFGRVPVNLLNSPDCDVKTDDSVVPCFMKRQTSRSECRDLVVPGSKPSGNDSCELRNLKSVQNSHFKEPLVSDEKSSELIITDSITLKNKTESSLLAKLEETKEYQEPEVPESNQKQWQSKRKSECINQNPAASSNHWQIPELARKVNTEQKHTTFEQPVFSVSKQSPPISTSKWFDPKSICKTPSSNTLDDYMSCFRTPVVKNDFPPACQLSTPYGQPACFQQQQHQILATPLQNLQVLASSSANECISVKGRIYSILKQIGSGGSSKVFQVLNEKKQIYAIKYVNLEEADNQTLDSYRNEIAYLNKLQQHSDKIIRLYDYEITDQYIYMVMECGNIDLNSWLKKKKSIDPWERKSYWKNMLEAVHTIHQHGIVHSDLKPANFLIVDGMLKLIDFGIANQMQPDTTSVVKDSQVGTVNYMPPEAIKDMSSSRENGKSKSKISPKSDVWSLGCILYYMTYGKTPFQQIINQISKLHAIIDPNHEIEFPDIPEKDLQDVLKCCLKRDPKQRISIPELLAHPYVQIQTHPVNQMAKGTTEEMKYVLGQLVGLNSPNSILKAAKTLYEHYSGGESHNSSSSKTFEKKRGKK
Description: as §1

ULK2 = target: T27, ULK2 (Homo sapiens, UniProt Q8IYT8)
T27 construct: purchased DiscoverX KINOMEscan
T27 sequence (Q8IYT8 whole entry): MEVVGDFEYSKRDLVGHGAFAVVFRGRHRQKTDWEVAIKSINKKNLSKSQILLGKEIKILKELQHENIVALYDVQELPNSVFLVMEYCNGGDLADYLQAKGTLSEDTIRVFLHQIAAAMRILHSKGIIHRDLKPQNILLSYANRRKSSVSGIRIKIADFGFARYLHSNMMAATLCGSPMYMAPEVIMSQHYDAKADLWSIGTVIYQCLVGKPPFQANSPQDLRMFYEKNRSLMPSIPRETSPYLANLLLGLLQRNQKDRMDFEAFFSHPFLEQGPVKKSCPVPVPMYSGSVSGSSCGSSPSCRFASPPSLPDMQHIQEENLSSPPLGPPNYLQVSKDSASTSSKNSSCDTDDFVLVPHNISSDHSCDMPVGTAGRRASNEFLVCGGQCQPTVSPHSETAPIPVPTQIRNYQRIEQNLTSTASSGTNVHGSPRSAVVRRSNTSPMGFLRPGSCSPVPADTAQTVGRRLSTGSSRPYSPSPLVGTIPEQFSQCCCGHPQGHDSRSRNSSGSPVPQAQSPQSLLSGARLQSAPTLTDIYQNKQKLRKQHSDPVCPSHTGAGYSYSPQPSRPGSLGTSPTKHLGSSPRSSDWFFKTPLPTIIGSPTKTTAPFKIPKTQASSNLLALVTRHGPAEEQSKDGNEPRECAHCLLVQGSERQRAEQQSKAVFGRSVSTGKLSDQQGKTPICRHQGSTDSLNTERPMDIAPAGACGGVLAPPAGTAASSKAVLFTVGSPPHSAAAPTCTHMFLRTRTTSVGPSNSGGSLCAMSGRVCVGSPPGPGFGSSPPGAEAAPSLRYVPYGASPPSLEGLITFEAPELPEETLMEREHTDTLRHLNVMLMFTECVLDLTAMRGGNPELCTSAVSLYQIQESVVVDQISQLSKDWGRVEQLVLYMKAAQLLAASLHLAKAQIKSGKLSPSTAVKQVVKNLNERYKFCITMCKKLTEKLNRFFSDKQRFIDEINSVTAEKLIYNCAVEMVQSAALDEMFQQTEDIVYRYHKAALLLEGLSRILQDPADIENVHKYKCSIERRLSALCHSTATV
Description: as §1

WEE1 = target: T28, WEE1 (Homo sapiens, UniProt P30291)
T28 construct: purchased DiscoverX KINOMEscan
Description: as §1

WEE2 = target: T29, WEE2 (Homo sapiens, UniProt P0C1S8)
T29 construct: purchased DiscoverX KINOMEscan
Description: as §1

WNK1 = target: T30, WNK1 (Homo sapiens, UniProt Q9H4A3)
T30 construct: purchased DiscoverX KINOMEscan
Description: as §1

WNK2 = target: T31, WNK2 (Homo sapiens, UniProt Q9Y3S1)
T31 construct: purchased DiscoverX KINOMEscan
Description: as §1

CN(C)CCNC(=O)c1ccc(-c2ccc(-c3ccc(Cl)cc3)n2-c2ccccc2C(F)(F)F)cc1 [Poloppin-II]
remaining binding at 5 µM (AAK1; AAK1, Poloppin-II 5µM, hit <35%): 100% | remaining binding at 5 µM (AURKA; AURKA, Poloppin-II 5µM, hit <35%): 83% | remaining binding at 5 µM (AURKC; AURKC, Poloppin-II 5µM, hit <35%): 85% | remaining binding at 5 µM (BMP2K; BMP2K, Poloppin-II 5µM, hit <35%): 85% | remaining binding at 5 µM (CSNK2A1; CSNK2A1, Poloppin-II 5µM, hit <35%): 96% | remaining binding at 5 µM (CSNK2A2; CSNK2A2, Poloppin-II 5µM, hit <35%): 92% | remaining binding at 5 µM (EIF2AK1; EIF2AK1, Poloppin-II 5µM, hit <35%): 98% | remaining binding at 5 µM (EIF2AK4; EIF2AK4, Poloppin-II 5µM, hit <35%): 97% | remaining binding at 5 µM (ERN1; ERN1, Poloppin-II 5µM, hit <35%): 74% | remaining binding at 5 µM (GAK; GAK, Poloppin-II 5µM, hit <35%): 100% | remaining binding at 5 µM (GSG2; GSG2, Poloppin-II 5µM, hit <35%): 77% | remaining binding at 5 µM (IKBKB; IKBKB, Poloppin-II 5µM, hit <35%): 100% | remaining binding at 5 µM (IKBKE; IKBKE, Poloppin-II 5µM, hit <35%): 75% | remaining binding at 5 µM (NEK2; NEK2, Poloppin-II 5µM, hit <35%): 94% | remaining binding at 5 µM (NEK3; NEK3, Poloppin-II 5µM, hit <35%): 74% | remaining binding at 5 µM (NEK4; NEK4, Poloppin-II 5µM, hit <35%): 100% | remaining binding at 5 µM (NEK5; NEK5, Poloppin-II 5µM, hit <35%): 99% | remaining binding at 5 µM (NEK7; NEK7, Poloppin-II 5µM, hit <35%): 79% | remaining binding at 5 µM (NEK9; NEK9, Poloppin-II 5µM, hit <35%): 92% | remaining binding at 5 µM (STK35; STK35, Poloppin-II 5µM, hit <35%): 71% | remaining binding at 5 µM (STK36; STK36, Poloppin-II 5µM, hit <35%): 91% | remaining binding at 5 µM (SgK110; SgK110, Poloppin-II 5µM, hit <35%): 100% | remaining binding at 5 µM (TBK1; TBK1, Poloppin-II 5µM, hit <35%): 80% | remaining binding at 5 µM (TLK1; TLK1, Poloppin-II 5µM, hit <35%): 99% | remaining binding at 5 µM (TLK2; TLK2, Poloppin-II 5µM, hit <35%): 94% | remaining binding at 5 µM (TTK; TTK, Poloppin-II 5µM, hit <35%): 83% | remaining binding at 5 µM (ULK2; ULK2, Poloppin-II 5µM, hit <35%): 100% | remaining binding at 5 µM (WEE1; WEE1, Poloppin-II 5µM, hit <35%): 98% | remaining binding at 5 µM (WEE2; WEE2, Poloppin-II 5µM, hit <35%): 92% | remaining binding at 5 µM (WNK1; WNK1, Poloppin-II 5µM, hit <35%): 97% | remaining binding at 5 µM (WNK2; WNK2, Poloppin-II 5µM, hit <35%): 100%

O=C(O)CCc1ccc(-c2ccc(Br)cc2)n1-c1ccccc1C(F)(F)F [Poloppin]
remaining binding at 50 µM (AAK1): 92% | remaining binding at 50 µM (AURKA): 81% | remaining binding at 50 µM (AURKC): 81% | remaining binding at 50 µM (BMP2K): 68% | remaining binding at 50 µM (CSNK2A1): 87% | remaining binding at 50 µM (CSNK2A2): 84% | remaining binding at 50 µM (EIF2AK1): 97% | remaining binding at 50 µM (EIF2AK4): 100% | remaining binding at 50 µM (ERN1): 76% | remaining binding at 50 µM (GAK): 100% | remaining binding at 50 µM (GSG2): 100% | remaining binding at 50 µM (IKBKB): 100% | remaining binding at 50 µM (IKBKE): 55% | remaining binding at 50 µM (NEK2): 95% | remaining binding at 50 µM (NEK3): 72% | remaining binding at 50 µM (NEK4): 100% | remaining binding at 50 µM (NEK5): 83% | remaining binding at 50 µM (NEK7): 68% | remaining binding at 50 µM (NEK9): 95% | remaining binding at 50 µM (STK35): 100% | remaining binding at 50 µM (STK36): 91% | remaining binding at 50 µM (SgK110): 94% | remaining binding at 50 µM (TBK1): 75% | remaining binding at 50 µM (TLK1): 100% | remaining binding at 50 µM (TLK2): 90% | remaining binding at 50 µM (TTK): 85% | remaining binding at 50 µM (ULK2): 100% | remaining binding at 50 µM (WEE1): 99% | remaining binding at 50 µM (WEE2): 86% | remaining binding at 50 µM (WNK1): 100% | remaining binding at 50 µM (WNK2): 100%
